The results in this text go back to the supplement of paper PMC10307832.

Holding throughout (assay): relative viability (nuclei count vs DMSO), 5 days (fraction); higher = more cells survive
Compound in experiment [1]: COC1=CC=C(C=C1)CN2C=CC3=C2C=C(C=C3)C(=O)NO + CC(=O)Nc1cccc(-n2c(=O)n(C3CC3)c(=O)c3c(Nc4ccc(I)cc4F)n(C)c(=O)c(C)c32)c1 [Trametinib] (partner 0.02 µM)
Summed up: (§1)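 Values are medians from duplicate plates. Each reflects relative viability, defined as the nuclei count of treated wells over that of vehicle wells. Lung cancer cell lines in 1536-well plates were pin-tool dosed one day after seeding with one drug alone or with a fixed anchor-drug dose plus five library-drug doses (not always all listed) in √10 steps, then fixed, stained and imaged at 4× after 5 days.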

Compound in experiment [2]: COC1=CC=C(C=C1)CN2C=CC3=C2C=C(C=C3)C(=O)NO + Cc1nc(NC(=O)N2CCC[C@H]2C(N)=O)sc1-c1ccnc(C(C)(C)C(F)(F)F)c1 [Alpelisib] (partner 2 µM)
A digest of the protocol:
as §1

Compound in experiment [3]: COC1=CC=C(C=C1)CN2C=CC3=C2C=C(C=C3)C(=O)NO + N=C(N)NC(=N)NCCc1ccccc1 [Phenformin] (partner 250 µM)
A digest of the protocol: as §1

Compound in the experiment “Veliparib + Vorinostat”: C[C@]1(c2nc3c(C(N)=O)cccc3[nH]2)CCCN1 [Veliparib] + O=C(CCCCCCC(=O)Nc1ccccc1)NO [Vorinostat] (partner 1 µM)
Summed up:
as §1

With NCI-H2170, the relative viability amounted to 0.888 in experiment [1] (first compound 0.08 µM); 0.931 in experiment [1] (first compound 0.253 µM); 0.867 in experiment [1] (first compound 0.8 µM); 0.897 in experiment [1] (first compound 2.53 µM); 0.865 in experiment [1] (first compound 8 µM); 0.714 in experiment [2] (first compound 0.08 µM). The relative viability in experiment [2] (first compound 0.253 µM) was 0.941; in experiment [2] (first compound 0.8 µM), 0.837; in experiment [2] (first compound 2.53 µM), 0.793; in experiment [2] (first compound 8 µM), 0.838; in experiment [3] (first compound 0.08 µM), 0.407; in experiment [3] (first compound 0.253 µM) it was 0.396. The relative viability in experiment [3] (first compound 0.8 µM) was found to be 0.411; in experiment [3] (first compound 2.53 µM), 0.419; in experiment [3] (first compound 8 µM), 0.381; with Veliparib + Vorinostat (first compound 0.02 µM) it was 0.795; with Veliparib + Vorinostat (first compound 0.06325 µM) it was 0.777; in the experiment with Veliparib + Vorinostat (first compound 0.2 µM) it was 0.839. Further, the relative viability in the experiment with Veliparib + Vorinostat (first compound 0.6325 µM) amounted to 0.786; in the experiment with Veliparib + Vorinostat (first compound 2 µM) it was 0.79.
Consider NCI-H2228, for which the relative viability in experiment [1] (first compound 0.08 µM) was 0.386; in experiment [1] (first compound 0.253 µM) it was 0.664; in experiment [1] (first compound 0.8 µM), 0.831; in experiment [1] (first compound 2.53 µM), 0.598; in experiment [1] (first compound 8 µM), 0.433; in experiment [2] (first compound 0.08 µM) it was 0.764. Moreover, the relative viability in experiment [2] (first compound 0.253 µM) was 0.659; in experiment [2] (first compound 0.8 µM) it was 0.773; in experiment [2] (first compound 2.53 µM), 0.893; in experiment [2] (first compound 8 µM), 0.741; in experiment [3] (first compound 0.253 µM), 0.381; in experiment [3] (first compound 0.8 µM), 0.3. Moreover, the relative viability was found to be 0.305 in experiment [3] (first compound 2.53 µM); 0.24 in experiment [3] (first compound 8 µM); 0.585 in the experiment with Veliparib + Vorinostat (first compound 0.02 µM); 0.734 in the experiment with Veliparib + Vorinostat (first compound 0.06325 µM); 0.585 with Veliparib + Vorinostat (first compound 0.2 µM); 0.455 in the experiment with Veliparib + Vorinostat (first compound 0.6325 µM). In the experiment with Veliparib + Vorinostat (first compound 2 µM), the relative viability stood at 0.469.
Turning to NCI-H2347, the relative viability was determined as 0.268 in experiment [1] (first compound 0.08 µM); 0.313 in experiment [1] (first compound 0.253 µM); 0.303 in experiment [1] (first compound 0.8 µM); 0.283 in experiment [1] (first compound 2.53 µM); 0.235 in experiment [1] (first compound 8 µM); 0.763 in experiment [2] (first compound 0.08 µM). Also, the relative viability in experiment [2] (first compound 0.253 µM) was 1.14; in experiment [2] (first compound 0.8 µM) it was 1.03; in experiment [2] (first compound 2.53 µM) it was 1.18; in experiment [2] (first compound 8 µM), 1.01; in experiment [3] (first compound 0.08 µM), 0.382; in experiment [3] (first compound 0.253 µM) it was 0.357. For the same cell line, the relative viability in experiment [3] (first compound 0.8 µM) amounted to 0.415; in experiment [3] (first compound 2.53 µM), 0.525; in experiment [3] (first compound 8 µM) it was 0.368; with Veliparib + Vorinostat (first compound 0.02 µM) it was 0.716; with Veliparib + Vorinostat (first compound 0.06325 µM), 0.545; with Veliparib + Vorinostat (first compound 0.2 µM) it was 0.561. The relative viability was determined as 0.616 with Veliparib + Vorinostat (first compound 0.6325 µM) and 0.637 with Veliparib + Vorinostat (first compound 2 µM).
Regarding NCI-H2405, the relative viability in experiment [1] (first compound 0.08 µM) was found to be 0.544; in experiment [1] (first compound 0.8 µM), 0.641; in experiment [1] (first compound 2.53 µM), 0.686; in experiment [1] (first compound 8 µM) it was 0.625; in experiment [2] (first compound 0.08 µM), 0.474; in experiment [2] (first compound 0.253 µM), 0.784. The relative viability turned out to be 0.804 in experiment [2] (first compound 0.8 µM); 0.797 in experiment [2] (first compound 2.53 µM); 0.675 in experiment [2] (first compound 8 µM); 0.327 in experiment [3] (first compound 0.08 µM); 0.431 in experiment [3] (first compound 0.253 µM); 0.39 in experiment [3] (first compound 0.8 µM). For the same cell line, the relative viability amounted to 0.416 in experiment [3] (first compound 2.53 µM); 0.365 in experiment [3] (first compound 8 µM); 0.812 with Veliparib + Vorinostat (first compound 0.02 µM); 1.01 with Veliparib + Vorinostat (first compound 0.2 µM); 1.12 in the experiment with Veliparib + Vorinostat (first compound 0.6325 µM); 1.09 with Veliparib + Vorinostat (first compound 2 µM).
Regarding NCI-H3122, the relative viability turned out to be 0.276 in experiment [1] (first compound 0.08 µM); 0.13 in experiment [1] (first compound 0.253 µM); 0.225 in experiment [1] (first compound 0.8 µM); 0.217 in experiment [1] (first compound 2.53 µM); 0.222 in experiment [1] (first compound 8 µM); 0.613 in experiment [2] (first compound 0.08 µM). In addition, the relative viability came out at 0.88 in experiment [2] (first compound 0.253 µM); 0.828 in experiment [2] (first compound 0.8 µM); 0.87 in experiment [2] (first compound 2.53 µM); 0.701 in experiment [2] (first compound 8 µM); 0.324 in experiment [3] (first compound 0.253 µM); 0.393 in experiment [3] (first compound 0.8 µM). Also, the relative viability in experiment [3] (first compound 2.53 µM) came to 0.382; in experiment [3] (first compound 8 µM) it was 0.337; with Veliparib + Vorinostat (first compound 0.02 µM), 0.906; with Veliparib + Vorinostat (first compound 0.06325 µM) it was 1.05; with Veliparib + Vorinostat (first compound 0.2 µM) it was 0.972; with Veliparib + Vorinostat (first compound 0.6325 µM), 0.929. For the same cell line, in the experiment with Veliparib + Vorinostat (first compound 2 µM), the relative viability amounted to 1.07.
Take PC-3 [JPC-3]: the relative viability turned out to be 0.641 in experiment [1] (first compound 0.08 µM); 0.75 in experiment [1] (first compound 0.8 µM); 0.702 in experiment [1] (first compound 2.53 µM); 0.683 in experiment [1] (first compound 8 µM); 1.02 in experiment [2] (first compound 0.08 µM); 1.02 in experiment [2] (first compound 0.253 µM). Besides, the relative viability turned out to be 1.01 in experiment [2] (first compound 0.8 µM); 1.13 in experiment [2] (first compound 2.53 µM); 1.02 in experiment [2] (first compound 8 µM); 0.5 in experiment [3] (first compound 0.08 µM); 0.464 in experiment [3] (first compound 0.253 µM); 0.475 in experiment [3] (first compound 0.8 µM). In addition, the relative viability in experiment [3] (first compound 2.53 µM) turned out to be 0.495; in experiment [3] (first compound 8 µM) it was 0.497; with Veliparib + Vorinostat (first compound 0.02 µM) it was 0.68; in the experiment with Veliparib + Vorinostat (first compound 0.2 µM) it was 1.02; with Veliparib + Vorinostat (first compound 0.6325 µM), 1.03; with Veliparib + Vorinostat (first compound 2 µM), 0.922.
